We go through 19 molecules from patent publication US12240862B2, “Inhibitors of peptidylarginine deiminases” (Gilead Sciences, Inc., priority 2020, dated 2025).

The target in the experiment is T1, human PAD4 (Homo sapiens, UniProt Q9UM07).
T1 construct: human PAD4 (NM_012387), A2P663, was PCR amplified; His-SUMO (N, cleaved yes); made in house; host or cells: E. coli BL21(DE3)
T1 sequence (Q9UM07 2-663): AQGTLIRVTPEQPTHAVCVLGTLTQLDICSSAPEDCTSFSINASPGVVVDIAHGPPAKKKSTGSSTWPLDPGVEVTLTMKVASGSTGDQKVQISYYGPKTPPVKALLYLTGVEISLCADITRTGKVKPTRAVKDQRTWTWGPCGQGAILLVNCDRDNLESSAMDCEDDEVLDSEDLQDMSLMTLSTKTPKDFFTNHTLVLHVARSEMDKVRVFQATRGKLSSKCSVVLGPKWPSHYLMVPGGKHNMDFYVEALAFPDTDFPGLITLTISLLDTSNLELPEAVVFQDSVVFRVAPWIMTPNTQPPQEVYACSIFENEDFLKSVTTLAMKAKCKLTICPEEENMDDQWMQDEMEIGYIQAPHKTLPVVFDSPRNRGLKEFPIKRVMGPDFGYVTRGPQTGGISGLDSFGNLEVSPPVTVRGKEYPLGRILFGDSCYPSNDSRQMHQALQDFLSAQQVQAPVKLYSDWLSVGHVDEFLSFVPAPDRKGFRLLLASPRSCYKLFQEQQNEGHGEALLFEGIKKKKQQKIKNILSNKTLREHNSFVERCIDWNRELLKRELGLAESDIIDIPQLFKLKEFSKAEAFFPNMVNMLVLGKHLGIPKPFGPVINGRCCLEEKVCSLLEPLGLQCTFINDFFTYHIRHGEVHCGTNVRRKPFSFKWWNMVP
Description: In vitro PAD4 BAEE biochemical assay. To be noted: human PAD4, BAEE substrate; 5 nM PAD4, 2 mM calcium chloride, 3 mM BAEE; geometric mean of multiple experiments. The method in brief:
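Ammonia release from BAEE deimination monitored by o-phthalaldehyde amine coupling (1 h, 25 °C) after EDTA stop. Final conditions: 5 nM tag-free recombinant human PAD4 (E. coli), 2 mM CaCl2, 3 mM BAEE, pH 7.6 MOPS with DTT; 30 min compound preincubation, then 2 h reaction at 25 °C.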
In the case of `COc1cc(C(=O)N2[C@H]3CC[C@@H]2[C@H](N)C3)cc2nc(-c3cc4ccc([C@@H](C)NC(=O)N(C)Cc5cccc(=O)[nH]5)nc4n3CC3CC3)c(C)n12` [Example 220, 3-[(1~{R})-1-[2-[7-[(1~{R},2~{R},4~{S})-2-amino-7-azabicyclo[2.2.1]heptane-7-carbonyl]-5-methoxy-3-methylimidazo [1,2-a]pyridin-2-yl]-1-(cyclopropylmethyl)pyrrolo [2,3-b]pyridin-6-yl]ethyl]-1-methyl-1-[(6-oxo-1~{H}-pyridin-2-yl)methyl]urea], the IC50 was 0.0791 µM.

For `COc1cc(C(=O)N2[C@H]3CC[C@@H]2[C@H](N)[C@H](O)C3)cc2nc(-c3cc4ccc([C@@H](C)NC(=O)C(C)(C)C)nc4n3CC3CC3)c(C)n12` [Example 60, ~{N}-[(1~{R})-1-[2-[7-[(1~{R},2~{S},3~{R}, 5~{S})-2-amino-3-hydroxy-8-azabicyclo[3.2.1]octane-8-carbonyl]-5-methoxy-3-methylimidazo [1,2-a]pyridin-2-yl]-1-(cyclopropylmethyl)pyrrolo[2,3-b]pyridin-6-yl]ethyl]-2,2-dimethylpropanamide], the IC50 was found to be 0.226 µM.

On to `CCc1ccc2cc(-c3nc4cc(C(=O)N5C[C@]6(N)CC[C@H]5C6)cc(OC)n4c3C)n(CC3CC3)c2n1` [Example 587, [(1~{S},4~{S})-4-amino-2-azabicyclo[2.2.1]heptan-2-yl]-[2-[1-(cyclopropylmethyl)-6-ethylpyrrolo[2,3-b]pyridin-2-yl]-5-methoxy-3-methylimidazo[1,2-a]pyridin-7-yl]methanone], for which the IC50 is 4.46 µM. Under `COc1cc(C(=O)N2[C@H]3CC[C@@H]2[C@H](N)C3)cc2nc(-c3cc4ccc([C@@H](C)NC(=O)Nc5ccccc5)nc4n3CC3CC3)c(C)n12` [Example 239, 1-[(1~{R})-1-[2-[7-[(1~{R},2~{R},4~{S})-2-amino-7-azabicyclo[2.2.1]heptane-7-carbonyl]-5-methoxy-3-methylimidazo [1,2-a]pyridin-2-yl]-1-(cyclopropylmethyl)pyrrolo [2,3-b]pyridin-6-yl]ethyl]-3-phenylurea] stands 0.0817 µM; under `COc1cc(C(=O)N2[C@H]3CC[C@@H]2[C@H](N)C3)cc2nc(-c3cc4ccc([C@@H](C)NC(=O)c5ccc(C#N)cc5)nc4n3CC3CC3)c(C)n12` [Example 123, ~{N}-[(1~{R})-1-[2-[7-[(1~{R},2~{R},4~{S})-2-amino-7-azabicyclo[2.2.1]heptane-7-carbonyl]-5-methoxy-3-methylimidazo [1,2-a]pyridin-2-yl]-1-(cyclopropylmethyl)pyrrolo [2,3-b]pyridin-6-yl]ethyl]-4-cyanobenzamide], 0.079 µM; under `COc1cc(C(=O)N2[C@H]3CC[C@@H]2[C@H](N)C3)cc2nc(-c3cc4ccc(C5CCN(C(=O)N6CCCC6)C5)nc4n3CC3CC3)c(C)n12` (stereo partly shown) [Example 529, [(1~{R},2~{R},4~{S})-2-amino-7-azabicyclo [2.2.1]heptan-7-yl]-[2-[1-(cyclopropylmethyl)-6-[1-(pyrrolidine-1-carbonyl)pyrrolidin-3-yl]pyrrolo [2,3-b]pyridin-2-yl]-5-methoxy-3-methylimidazo [1,2-a]pyridin-7-yl] methanone], 0.151 µM.

Turning to `COc1cc(C(=O)N2[C@H]3CC[C@@H]2[C@H](N)C3)cc2nc(-c3cc4ccc(C5=CC(=O)NCC5)nc4n3CC3CC3)c(C)n12` [Example 561, 4-[2-[7-[(1~{R},2~{R}, 4~{S})-2-amino-7-azabicyclo[2.2.1]heptane-7-carbonyl]-5-methoxy-3-methylimidazo[1,2-a]pyridin-2-yl]-1-(cyclopropylmethyl)pyrrolo[2,3-b]pyridin-6-yl]-2,3-dihydro-1~{H}-pyridin-6-one], the IC50 was 0.193 µM.

On to `CCc1ccc2cc(-c3nc4cc(C(=O)N5[C@H]6CC[C@@H]5[C@H](N)C6)cc(OC)n4c3C)n(-c3ccccc3)c2n1` [Example 512, [(1~{R},2~{R},4~{S})-2-amino-7-azabicyclo [2.2.1]heptan-7-yl]-[2-(6-ethyl-1-phenylpyrrolo [2,3-b]pyridin-2-yl)-5-methoxy-3-methylimidazo [1,2-a]pyridin-7-yl]methanone], for which the IC50 was 17.7 µM. Take `COc1cc(C(=O)N2[C@H]3CC[C@H](N)[C@@H]2CC3)cc2nc(-c3cc4ccc(N(C(F)F)S(C)(=O)=O)nc4n3CC3CC3)c(C)n12` [Example 408, ~{N}-[2-[7-[(1~{S},2~{S}, 5~{S})-2-amino-8-azabicyclo[3.2.1]octane-8-carbonyl]-5-methoxy-3-methylimidazo[1,2-a]pyridin-2-yl]-1-(cyclopropylmethyl)pyrrolo [2,3-b]pyridin-6-yl]-~{N}-(difluoromethyl) methanesulfonamide]: the 50% inhibitory concentration (IC50) stood at 3.02 µM.

On to `COc1cc(C(=O)N2[C@H]3CC[C@@H]2[C@H](N)C3)cc2nc(-c3cc4ccc(N5C(=O)CCCC5C)nc4n3CC3CC3)c(C)n12` (stereo partly shown) [Example 456, 1-[2-[7-[(1~{R},2~{R}, 4~{S})-2-amino-7-azabicyclo[2.2.1]heptane-7-carbonyl]-5-methoxy-3-methylimidazo[1,2-a]pyridin-2-yl]-1-(cyclopropylmethyl)pyrrolo[2,3-b]pyridin-6-yl]-6-methylpiperidin-2-one], for which the IC50 amounted to 0.25 µM. Under `COc1cc(C(=O)N2C[C@H]3C[C@H](O)[C@@H]2[C@@H]3N)cc2nc(-c3cc4ccc([C@@H](C)NC(=O)C(C)(C)C)nc4n3CC3CC3)c(C)n12` [Example 173, N-((R)-1-(2-(7-((1S,4R,6S,7R)-7-amino-6-hydroxy-2-azabicyclo [2.2.1]heptane-2-carbonyl)-5-methoxy-3-methylimidazo [1,2-a]pyridin-2-yl)-1-(cyclopropylmethyl)-1H-pyrrolo[2,3-b]pyridin-6-yl)ethyl)pivalamide] stands 0.497 µM; under `COc1cc(C(=O)N2[C@H]3CC[C@@H]2[C@H](N)C3)cc2nc(-c3cc4ccc([C@@H](C)NC(=O)c5ccc(C)nc5)nc4n3CC3CC3)c(C)n12` [Example 49, ~{N}-[(1~{R})-1-[2-[7-[(1~{R},2~{R},4~{S})-2-amino-7-azabicyclo[2.2.1]heptane-7-carbonyl]-5-methoxy-3-methylimidazo [1,2-a]pyridin-2-yl]-1-(cyclopropylmethyl)pyrrolo[2,3-b]pyridin-6-yl]ethyl]-6-methylpyridine-3-carboxamide], 0.0222 µM; under `COc1cc(C(=O)N2[C@H]3CC[C@@H]2[C@H](N)C3)cc2nc(-c3cc4ccc(C(C)(O)c5ccccc5)nc4n3CC3CC3)c(C)n12` (stereo partly shown) [Example 573, [(1~{R},2~{R},4~{S})-2-amino-7-azabicyclo [2.2.1]heptan-7-yl]-[2-[1-(cyclopropylmethyl)-6-(1-hydroxy-1-phenylethyl)pyrrolo[2,3-b]pyridin-2-yl]-5-methoxy-3-methylimidazo[1,2-a]pyridin-7-yl]methanone], 1 µM.

`CCc1ccc2cc(-c3nc4cc(C(=O)N5[C@H]6CC[C@@H]5[C@H](N)C6)cc(OC)n4c3N)n(CC3CC3)c2n1` [Example 552, [(1~{R},2~{R},4~{S})-2-amino-7-azabicyclo [2.2.1]heptan-7-yl]-[3-amino-2-[1-(cyclopropylmethyl)-6-ethylpyrrolo[2,3-b]pyridin-2-yl]-5-methoxyimidazo [1,2-a]pyridin-7-yl]methanone]: the IC50 came to 0.153 µM. In the case of “~{N}-[(1~{R})-1-[2-[7- [(1~{R},2~{R},4~{S})-2- amino-7- azabicyclo[2.2.1]heptane-7- carbonyl]- 5-methoxy-3-methylimidazo [1,2-a]pyridin-2-yl]-1- (cyclopropylmethyl)pyrrolo [2,3-b]pyridin-6-yl]ethyl]- 3,3-dimethylcyclobutane-1- carboxamide [Example 71]” it was 0.0634 µM; in that of `COc1cc(C(=O)N2[C@H]3CC[C@@H]2[C@H](N)C3)cc2nc(-c3cc4ccc([C@@H](C)NC(=O)c5cn(C)nc5Cl)nc4n3CC3CC3)c(C)n12` [Example 76, ~{N}-[(1~{R})-1-[2-[7-[(1~{R},2~{R},4~{S})-2-amino-7-azabicyclo[2.2.1]heptane-7-carbonyl]-5-methoxy-3-methylimidazo [1,2-a]pyridin-2-yl]-1-(cyclopropylmethyl)pyrrolo [2,3-b]pyridin-6-yl]ethyl]-3-chloro-1-methylpyrazole-4-carboxamide], 0.058 µM. Under `CCc1ccc2cc(-c3nc4cc(C(=O)N5[C@H]6CC[C@@H]5[C@H](N)C6)cc(OC)n4c3C)n(-c3nccs3)c2n1` [Example 510, [(1~{R},2~{R},4~{S})-2-amino-7-azabicyclo [2.2.1]heptan-7-yl]-[2-[6-ethyl-1-(1,3-thiazol-2-yl)pyrrolo[2,3-b]pyridin-2-yl]-5-methoxy-3-methylimidazo[1,2-a]pyridin-7-yl]methanone] stands 17.1 µM. Take `COc1cc(C(=O)N2[C@H]3CC[C@@H]2[C@H](N)C3)cc2nc(-c3cc4ccc(C(C)CN5CCOCC5)nc4n3CC3CC3)c(C)n12` (stereo partly shown) [Example 543, [(1~{R},2~{R},4~{S})-2-amino-7-azabicyclo [2.2.1]heptan-7-yl]-[2-[1-(cyclopropylmethyl)-6-(1-morpholin-4-ylpropan-2-yl)pyrrolo[2,3-b]pyridin-2-yl]-5-methoxy-3-methylimidazo [1,2-a]pyridin-7-yl] methanone]: the IC50 is 0.108 µM. Under `COc1cc(C(=O)N2[C@@H]3CC[C@@H](N)[C@H]2CC3)cc2nc(-c3cc4ccc(N(C(F)F)S(C)(=O)=O)nc4n3CC3CC3)c(CC3CC3)n12` [Example 403, ~{N}-[2-[7-[(1~{R},2~{R}, 5~{R})-2-amino-8-azabicyclo[3.2.1]octane-8-carbonyl]-3-(cyclopropylmethyl)-5-methoxyimidazo [1,2-a]pyridin-2-yl]-1-(cyclopropylmethyl)pyrrolo [2,3-b]pyridin-6-yl]-~{N}-(difluoromethyl) methanesulfonamide] stands 0.754 µM.
